The target of test [1] is T1, aurora-2 kinase (Homo sapiens, UniProt O14965).
T1 construct: purchased Imgenex, San Diego, Calif; host or cells: sf9 cells
T1 sequence (O14965 1-403): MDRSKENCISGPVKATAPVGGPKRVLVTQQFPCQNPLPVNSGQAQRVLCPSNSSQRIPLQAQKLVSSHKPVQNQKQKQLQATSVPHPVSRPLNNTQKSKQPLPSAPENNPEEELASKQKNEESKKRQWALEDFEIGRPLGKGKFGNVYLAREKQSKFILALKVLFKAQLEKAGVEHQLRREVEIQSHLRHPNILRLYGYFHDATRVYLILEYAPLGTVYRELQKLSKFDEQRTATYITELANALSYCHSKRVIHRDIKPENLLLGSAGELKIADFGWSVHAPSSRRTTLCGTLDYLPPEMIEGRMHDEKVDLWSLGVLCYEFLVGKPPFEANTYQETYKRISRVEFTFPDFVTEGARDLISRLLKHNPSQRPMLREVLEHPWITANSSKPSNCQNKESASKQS
Description: Aurora-2 kinase inhibition assay (Kinase-Glo). It is filed as biochemical. Conditions: aurora-2 kinase, FIG. 11. As for the experimental part:
In this assay kinase activity is determined by quantifying the amount of ATP remaining in solution following the kinase reaction by measuring the light units (LU) produced by luciferase using a luminometer. Percent inhibition was determined for individual compounds by comparing luminometer readings of drug-treated reactions to controls containing no drug (DMSO control) and no Aurora-2 enzyme (ATP control) in the following equation: […]
In a 50 μl reaction, recombinant aurora-2 kinase produced in sf9 cells (Imgenex, San Diego, Calif.) was incubated at 30° C. for two hours with 62.5 μM Kemptide (Calbiochem, San Diego, Calif.), 3 μM ATP (Invitrogen, Carlsbad, Calif.) and kinase reaction buffer (40 mM Tris-HCl, 10 mM MgCl2 and 0.1 μg/μl bovine serum albumin (BSA)). This reaction was carried out in the presence of drug substances, which had been previously diluted to desired concentrations in DMSO. After incubation, 50 μl of Kinase-Glo® (Promega, Inc., Madison, Wis.) solution was added to each reaction mixture and allowed to equilibrate for 10 minutes at room temperature. Kinase-Glo solution contains luciferase enzyme and luciferin, which react with ATP to produce light. Kinase activity is determined by quantifying the amount of ATP remaining in solution following the kinase reaction by measuring the light units (LU) produced by luciferase using a luminometer (PerkinElmer, Boston, Mass.).

The test system of test [2] is GIST882 cell line. Kind of test: GIST882 cell growth assay (Cell-Titer-Glo). It is filed as cell-based. Conditions: Homo sapiens; GIST882, 96 hours. The protocol:
(§1) Briefly, cells are seeded into 96-well, tissue-culture treated, opaque white plates (Thermo Electron, Vantaa, Finland), at between 5000 and 7500 cells per well, depending on the speed of cell proliferation, in 100 μl of appropriate growth medium (determined by the ATCC). Cells are then exposed to the appropriate concentration of drug or an equal amount of DMSO (drug diluent) and allowed to grow in its presence for 96 hours. Following this, 100 μl of Cell-Titer-Glo reagent (Promega, Inc., Madison, Wis.) is added to each well. Plates are then shaken for 2 minutes at room temperature to allow for cell lysis and incubated for 10 minutes to stabilize the luminescent signal. Similar to the Kinase-Glo assay reagent, this reagent contains both luciferase enzyme and its substrate luciferin. Luciferase, activated by ATP in the cell lysate, catalyzes the conversion of luciferin to oxyluciferin, a reaction which produces light. The amount of light produced is proportionate to the amount of ATP in the cell lysate, which is itself proportional to cell number and gives an index of cellular proliferation.
as §1, with “Various compounds of the invention, including (IV-1-3) (also referred to as HPK16), (III-1-3) (also referred to as HPK56), (III-1-4) (also referred to as HPK57), (III-1-5) (also referred to as HPK59), and (II-2-7) (also referred to as HPK61) were tested for activity against GIST tumor cells using the GIST882 cell line. Briefly,” for “Briefly,”

In test [3] the test system is GIST882 cell line. Description: Cancer cell cytotoxicity assay (sulforhodamine B). It is filed as cell-based. Conditions: for IC50: Homo sapiens, 96 h, GIST882, 4 days, read-out: IC50 c-kit GIST882. The protocol: To validate the hypothesis that the designed c-kit/PDGFR tyrosine kinase inhibitors mediate GIST882 cell killing and PDGFR-mediated cell killing of pancreatic cancer cell lines (CFPAC-1, PANC-1 and MIA PaCa-2), an in vitro cytotoxicity assay was performed. The GIST882 cell line used in this study has a c-kit gain-of-function mutation (K642E). […] First the cells were cultured. GIST882 cells were provided by Dr. Jonathan A. Fletcher (Dana-Farber Cancer Institute, Boston, Mass.). PANC-1 and MIAPaCa-2 cells were provided by Dr. Daniel Von Hoff (Arizona Cancer Center, Tucson, Ariz.). […] All the cell lines were incubated in a humidified incubator at 37° C. with 5% CO2 atmosphere.
(§2) After incubation for 4 days at 37° C. in a humidified incubator, the cells were fixed with 10% Trichloroacetic acid solution (Catalog No. 490-10, Sigma). Subsequently, they were labeled with 0.04% Sulforhodamine B (S9012, Sigma) in 1% acetic acid. After multiple washes to remove excess dye, 100 μl of 50 mM Tris solution was added to each well in order to dissolve the dye. The absorbance of each well was read on a plate reader (Wallac Vector^2, PerkinElmer) at the wavelength of 570 nm. Data were expressed as the percentage of survival of control calculated from the absorbance corrected for background absorbance. The surviving percent of cells was determined by dividing the mean absorbance values of the […] by the mean absorbance values of the control and multiplying by 100.

In test [4] the test system is PANC-1 cells. Description: Cancer cell cytotoxicity assay (sulforhodamine B). The conditions noted are these: Homo sapiens, 96 h; PANC-1, 4 days; read-out: IC50 PDGFR PANC-1. It is filed as cell-based. As for the experimental part:
(§3) To validate the hypothesis that the designed c-kit/PDGFR tyrosine kinase inhibitors mediate GIST882 cell killing and PDGFR-mediated cell killing of pancreatic cancer cell lines (CFPAC-1, PANC-1 and MIA PaCa-2), an in vitro cytotoxicity assay was performed. The GIST882 cell line used in this study has a c-kit gain-of-function mutation (K642E). The assay utilized the Cell Titer 965 Non-Radioactive Cell Proliferation Assay (Promega Corp., Madison, Wis.). First the cells were cultured. GIST882 cells were provided by Dr. Jonathan A. Fletcher (Dana-Farber Cancer Institute, Boston, Mass.). PANC-1 and MIAPaCa-2 cells were provided by Dr. Daniel Von Hoff (Arizona Cancer Center, Tucson, Ariz.). GIST882 cells were cultured in RPMI 1640 medium (Cat #21870-076, Invitrogen Corporation) supplemented with 300 mg/L L-glutamine, 100 unit/ml penicillin, 100 μg/ml streptomycin and 15% fetal bovine serum. PANC-1 and MIAPaCa-2 cells were maintained in RPMI 1640 medium (cat #10-040, Mediatech, Inc.) supplemented with 100 unit/ml penicillin, 100 μg/ml streptomycin and 10% fetal bovine serum. All the cell lines were incubated in a humidified incubator at 37° C. with 5% CO2 atmosphere.
as §2, with “Cells were plated at a density of 2000 to 10000 cells per well, depending on their growth rate, in 0.1 mL medium on day 0 in 96-well Falcon microtiter plates (#3072, Becton-Dickinson Labware, Lincoln Park, N.J.). On day 1, 10 μL of serial dilutions of the individual compounds were added to the plates in replicates of 4. After incubation” for “After incubation”

Test [5] deals with MIAPaCa-2 cells. Kind of test: Cancer cell cytotoxicity assay (sulforhodamine B). Conditions: Homo sapiens, MIA PaCa-2, 96 h; MIAPaCa-2, 4 days; read-out: IC50 PDGFR MIAPaCa. It is filed as cell-based. The protocol: as §3
as §2, with “Cells were plated at a density of 2000 to 10000 cells per well, depending on their growth rate, in 0.1 mL medium on day 0 in 96-well Falcon microtiter plates (#3072, Becton-Dickinson Labware, Lincoln Park, N.J.). On day 1, 10 μL of serial dilutions of the individual compounds were added to the plates in replicates of 4. After incubation” for “After incubation”

The subject of test [6] is metastatic GISTs. The conditions noted are these: 400 mg or 600 mg per day, patients assessed at 1-3 months; cited from earlier work.
For test [7], the system named is Akt phosphorylation in NIH 3T3 cells. Description: Immunoblot for phospho-Akt (S473). It is filed as cell-based. Conditions: NIH 3T3, 4 hours, agent alone. As for the experimental part:
(§4) In order to evaluate these effects at the cellular level, immunoblot analysis was performed on lysates from cells treated with MP470, with or without the addition of the EGFR inhibitor Tarceva®. Lysates were assayed for general tyrosine kinase activity, as well as the specific phosphorylation of c-Met and Akt. Briefly, NIH 3T3 cells were pretreated with drugs as indicated for 4 hours, then treated with pervanadate for a further 30 minutes. Immunoblot detection was carried out with antibodies for phosphotyrosine, phospho-Met and phospho-Akt (S473), as well as total c-Met and Akt. Beta-actin was used as a loading control.

The test system of test [8] is Akt phosphorylation in LNCaP prostate carcinoma cells. Kind of test: Immunoblot for phospho-Akt (S473). It is filed as cell-based. The conditions noted are these: 48 hours, agent alone. As for the experimental part: LNCaP prostate carcinoma cells were treated with MP-470, in combinations with Tarceva® and Gleevec®, for 48 hours. Following incubation, cells were lysed and total protein subjected to immunoblot analysis for total Akt and phospho-Akt (S473).
Background: A western blot detects proteins with antibodies after separation by electrophoresis.

Test [9] relates to c-Met autophosphorylation in NIH 3T3 cells. Kind of test: Immunoblot for phospho-Met. It is filed as cell-based. Conditions: NIH 3T3, 4 hours, agent alone. As for the experimental part: as §4, with “MP-470 (Compound III-1-3) has inhibitory effects on a number of receptor tyrosine kinases. In” for “In”

This is an account of results in patent publication US8552018B2, “Substituted tricyclic compounds as protein kinase inhibitors” (Arizona Board of Regents on behalf of the University of …, priority 2003, dated 2013).

A word on the IC50: it is the point on the concentration scale where inhibition reaches its midpoint.

In [1], `COc1cc2ncnc(Nc3ncc(NC(=S)NCc4ccc5c(c4)OCO5)cn3)c2cc1OC` [AKS110, 1-Benzo[1,3]dioxol-5-yl methyl-3-[2-(6,7-dimethoxy-quinazolin-4ylamino)-pyrimidin-5yl]-thiourea] displayed an IC50 of 36 µM.

With `S=C(NCc1ccc2c(c1)OCO2)N1CCN(c2ncnc3c2sc2ncccc23)CC1` [HPK57, 4-(9-Thia-1,5,7-triaza-fluoren-8-yl)-piperazine-1-carbothioic acid (benzo[1,3]dioxol-5-ylmethyl)-amide], the IC50 is 28 µM in [2], 28 µM in test [3], > 50 µM in test [4] and > 50 µM in [5].

In the case of `O=S(=O)(Nc1ncccn1)c1ccc(NC(=S)N2CCN(c3ncnc4c3oc3ccccc34)CC2)cc1` [HPK59, 4-Benzo[4,5]furo[3,2-d]pyrimidin-4-yl-piperazine-1-carbothioic acid [4-(pyrimidin-2-ylsulfamoyl)-phenyl]-amide], the IC50 in test [2] and in test [3] was 27.5 µM each time.

Turning to `O=S(=O)(Nc1ncccn1)c1ccc(NC(=S)N2CCN(c3ncnc4c3sc3ncccc34)CC2)cc1` [HPK60, 4-(9-Thia-1,5,7-triaza-fluoren-8-yl)-piperazine-1-carbothioic acid [4-(pyrimidin-2-ylsulfamoyl)-phenyl]-amide], the IC50 in [2] is 50 µM; in [3], 50 µM; in test [4], > 50 µM; in test [5], > 50 µM.

With `Cc1ccc(NC(=O)c2ccc(CN3CCN(C)CC3)cc2)cc1Nc1nccc(-c2cccnc2)n1` [STI571], the “cells alive at day 4” value in test [3] (GIST882, day 4) came to 25%. Moreover, in [6], the partial response is given as 54%, the progressive disease was 12% and the stable disease is 34%.

Turning to `C#Cc1cccc(Nc2ncnc3cc(OCCOC)c(OCCOC)cc23)c1` [Tarceva®, reference compound], the figures for the “phosphorylation of Akt” value in test [7] and in [8] were “Neither of these effects was observed” and “did not appear to have an effect”, respectively. Further, in test [9], the “activating autophosphorylation of c-Met” value is given as “Neither of these effects was observed”.
